30 molecules from PubChem BioAssay (NCI) can be followed below.

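Tested at 5 concentrations; 48 h exposure; 96-well plates; endpoints linearly interpolated, else capped at highest concentration. TGI denotes the concentration required for complete inhibition of growth.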

Among the test systems are MCF7 breast; U251 CNS; LOX IMVI melanoma.
Test in all cases: DTP human tumour cell line panel, 48 h

For orientation: TGI means the concentration at which net growth stops. Low readings indicate greater sensitivity of the cells, high ones lower sensitivity of the cells. For `CN(C)CCCNC(=O)c1cc(NS(=O)(=O)c2ccc3c(c2)C(=O)c2ccccc2C3=O)cn1C`, the TGI is 46.4 µM in the test with MCF7 breast, more than 100 µM with U251 CNS and 39.6 µM in the test with LOX IMVI melanoma.

With `COc1cc2cc3c4c(cc(OC)c(OC)c4c2cc1OC)CCN3C`, the concentration for total growth inhibition (TGI) with MCF7 breast is more than 36.4 µM; with U251 CNS, more than 50 µM; in the test on LOX IMVI melanoma, 16.7 µM.

For `CCOC(=O)C1C(c2ccc(OC)cc2)c2c([nH][nH]c2=O)CC1(C)O` (stereo not drawn), the total growth inhibition concentration (TGI) in the test on MCF7 breast, in the test on U251 CNS and in the test with LOX IMVI melanoma was more than 100 µM throughout.

As for `CC(=O)C1C(=O)C(=O)N(c2ccc([N+](=O)[O-])cc2)C1=O` (stereo not drawn), the TGI with MCF7 breast, with U251 CNS and in the test on LOX IMVI melanoma was more than 100 µM throughout.

As for `O=c1oc2ccccc2c(O)c1C(c1ccc(-c2ccccc2)cc1)c1c(O)c2ccccc2oc1=O`, the TGI in the test on U251 CNS was more than 100 µM; with LOX IMVI melanoma, 44.4 µM.

Turning to `N#CC(C#N)=c1c2ccccc2c(=C(C#N)C#N)c2ccccc12`, the results for the TGI in the test on MCF7 breast, in the test on U251 CNS and with LOX IMVI melanoma were more than 100 µM, 55.4 µM and 40.5 µM, respectively.

Regarding `CCS(=O)c1c2cc(OC)ccc2nc2ccc(OC)cc12` (stereo not drawn), the concentration for total growth inhibition (TGI) with MCF7 breast is more than 100 µM; in the test on U251 CNS, more than 55.3 µM; with LOX IMVI melanoma, more than 100 µM.

For `Nc1cccc(OCC2CCCN3CCCCC23)c1` (stereo not drawn), the figures for the TGI in the test with MCF7 breast, with U251 CNS and in the test on LOX IMVI melanoma were 37.1 µM, 44.6 µM and 31.4 µM, respectively.

With `COc1ccc(CNc2nc(NCc3ccc(OC)cc3)nc(NC3CCCC3)n2)cc1`, the total growth inhibition concentration (TGI) with MCF7 breast was 9.83 µM; in the test with U251 CNS, more than 25.3 µM; in the test with LOX IMVI melanoma it was 76.9 µM.

As for `COC(=O)c1cc(O)c(O)c(O)c1-c1c(O)c(O)c(O)c(SC[C@H](NC(=O)OCc2ccccc2)C(=O)OCc2ccccc2)c1C(=O)OC`, the concentration for total growth inhibition (TGI) in the test on MCF7 breast came out at 43.1 µM; with U251 CNS it was 33.5 µM; with LOX IMVI melanoma it was 49.4 µM.

Take `COC(=O)c1ccc(C)cc1CC1Cc2cccc(C)c2C1=O` (stereo not drawn): the TGI in the test with MCF7 breast was 7.38 µM; with U251 CNS, 17.4 µM; in the test on LOX IMVI melanoma, 9.79 µM.

Regarding `COc1ccc(-c2csc(Cc3nc4c(Br)cc(Br)cc4c(=O)n3-c3ccc(OC)cc3)n2)cc1`, the TGI in the test with MCF7 breast, with U251 CNS and in the test on LOX IMVI melanoma was more than 100 µM throughout.

Consider `CCOC(=O)OC1C(Br)C2CCC1(C)C2(C)C` (stereo not drawn), for which the figures for the TGI with MCF7 breast, in the test on U251 CNS and in the test with LOX IMVI melanoma were 31.3 µM, 26.6 µM and 18.9 µM, respectively.

Turning to `O=C1CCC2c3ccccc3NCN12` (stereo not drawn), the TGI with MCF7 breast, in the test on U251 CNS and in the test with LOX IMVI melanoma was more than 100 µM in each case.

On to `COc1ccc(N=Nc2ccc3oc(=O)c(C(=O)Nc4ccccc4C)cc3c2)cc1`, for which the TGI in the test on MCF7 breast, in the test on U251 CNS and in the test on LOX IMVI melanoma was more than 10 µM in each case.

`O=[N+]([O-])c1cc(N=Nc2c(O)ccc3cc(S(=O)(=O)O)ccc23)c(O)c([N+](=O)[O-])c1`: the TGI in the test with U251 CNS and with LOX IMVI melanoma was more than 100 µM throughout.

For `COC(=O)c1c(C)c2c(c(C)c1C(=O)OC)-c1c(C)ccc3ccc(C)c-2c13`, the TGI in the test with MCF7 breast was more than 100 µM; with U251 CNS, more than 100 µM; in the test on LOX IMVI melanoma, more than 86.5 µM.

Turning to `c1ccc(Cn2c(-c3ccc(-c4ccccc4)cc3)cc3ccccc32)cc1`, the total growth inhibition concentration (TGI) in the test on MCF7 breast, in the test with U251 CNS and in the test with LOX IMVI melanoma was more than 100 µM each time.

Turning to `CN(/N=C/c1ccccn1)C1=NCCCN1`, the TGI with MCF7 breast, with U251 CNS and in the test with LOX IMVI melanoma was more than 100 µM each time.

`CO[C@@]12C[C@@H](C)[C@]34O[C@H]3C[C@]3(C)O[C@]43CC1=C(C)C(=O)O2`: the TGI with MCF7 breast, in the test with U251 CNS and with LOX IMVI melanoma was more than 100 µM each time.

As to `O=C(CC(C(=O)c1ccsc1)c1ccsc1)c1ccsc1` (stereo not drawn), the TGI with MCF7 breast, in the test on U251 CNS and with LOX IMVI melanoma was more than 100 µM throughout.

Take `O=C1OCC(c2ccc(Cl)cc2)=C1Cl`: the TGI is 44.6 µM in the test with MCF7 breast, more than 100 µM with U251 CNS and 60.3 µM with LOX IMVI melanoma.

Take `Cc1cn(Cc2cccc(C3=NCCCN3)c2)c(=O)n(Cc2cccc(C3=NCCCN3)c2)c1=O`: the TGI in the test with MCF7 breast, in the test with U251 CNS and in the test on LOX IMVI melanoma was more than 100 µM in each case.

As to `CN(C)C(=S)C(Cl)(c1ccccc1)c1ccccc1`, the TGI in the test with MCF7 breast, with U251 CNS and with LOX IMVI melanoma was more than 100 µM each time.

In the case of `c1ccc2c(c1)c1c3c(c4c(n32)=NCCN4)CCC1`, the values for the TGI in the test on MCF7 breast, with U251 CNS and in the test with LOX IMVI melanoma were 98.2 µM, more than 100 µM and 43.3 µM, respectively.

With `CCC1(CC)N=C(C(F)(F)F)c2cc(C(=O)C(F)(F)F)c3ccccc3c2N1`, the TGI with MCF7 breast amounted to 27.4 µM; in the test on U251 CNS, 23.6 µM; with LOX IMVI melanoma it was 13.7 µM.

With `O=C(O)CCCNc1ncc2c(n1)-c1ccccc1OC2`, the TGI with MCF7 breast, in the test with U251 CNS and in the test with LOX IMVI melanoma was more than 100 µM in each case.

Take `CN(C)c1ccc(/C=N/c2nc3cc4sc(/N=C/c5ccc(N(C)C)cc5)nc4cc3s2)cc1`: the TGI in the test on MCF7 breast, in the test on U251 CNS and with LOX IMVI melanoma was more than 100 µM each time.

With `OCCCCn1cc(Cn2ncc3c(NCc4ccccc4)ncnc32)nn1`, the TGI in the test on MCF7 breast, in the test with U251 CNS and in the test on LOX IMVI melanoma was more than 100 µM throughout.

For `CS(=O)(=O)OCCCSCCSCCCOS(C)(=O)=O`, the TGI in the test on MCF7 breast, in the test on U251 CNS and in the test on LOX IMVI melanoma was more than 100 µM in each case.
